Experiment [1] has as its target T1, Poly [ADP-ribose] polymerase tankyrase-1 (Homo sapiens, UniProt O95271).
T1 sequence (O95271 whole entry): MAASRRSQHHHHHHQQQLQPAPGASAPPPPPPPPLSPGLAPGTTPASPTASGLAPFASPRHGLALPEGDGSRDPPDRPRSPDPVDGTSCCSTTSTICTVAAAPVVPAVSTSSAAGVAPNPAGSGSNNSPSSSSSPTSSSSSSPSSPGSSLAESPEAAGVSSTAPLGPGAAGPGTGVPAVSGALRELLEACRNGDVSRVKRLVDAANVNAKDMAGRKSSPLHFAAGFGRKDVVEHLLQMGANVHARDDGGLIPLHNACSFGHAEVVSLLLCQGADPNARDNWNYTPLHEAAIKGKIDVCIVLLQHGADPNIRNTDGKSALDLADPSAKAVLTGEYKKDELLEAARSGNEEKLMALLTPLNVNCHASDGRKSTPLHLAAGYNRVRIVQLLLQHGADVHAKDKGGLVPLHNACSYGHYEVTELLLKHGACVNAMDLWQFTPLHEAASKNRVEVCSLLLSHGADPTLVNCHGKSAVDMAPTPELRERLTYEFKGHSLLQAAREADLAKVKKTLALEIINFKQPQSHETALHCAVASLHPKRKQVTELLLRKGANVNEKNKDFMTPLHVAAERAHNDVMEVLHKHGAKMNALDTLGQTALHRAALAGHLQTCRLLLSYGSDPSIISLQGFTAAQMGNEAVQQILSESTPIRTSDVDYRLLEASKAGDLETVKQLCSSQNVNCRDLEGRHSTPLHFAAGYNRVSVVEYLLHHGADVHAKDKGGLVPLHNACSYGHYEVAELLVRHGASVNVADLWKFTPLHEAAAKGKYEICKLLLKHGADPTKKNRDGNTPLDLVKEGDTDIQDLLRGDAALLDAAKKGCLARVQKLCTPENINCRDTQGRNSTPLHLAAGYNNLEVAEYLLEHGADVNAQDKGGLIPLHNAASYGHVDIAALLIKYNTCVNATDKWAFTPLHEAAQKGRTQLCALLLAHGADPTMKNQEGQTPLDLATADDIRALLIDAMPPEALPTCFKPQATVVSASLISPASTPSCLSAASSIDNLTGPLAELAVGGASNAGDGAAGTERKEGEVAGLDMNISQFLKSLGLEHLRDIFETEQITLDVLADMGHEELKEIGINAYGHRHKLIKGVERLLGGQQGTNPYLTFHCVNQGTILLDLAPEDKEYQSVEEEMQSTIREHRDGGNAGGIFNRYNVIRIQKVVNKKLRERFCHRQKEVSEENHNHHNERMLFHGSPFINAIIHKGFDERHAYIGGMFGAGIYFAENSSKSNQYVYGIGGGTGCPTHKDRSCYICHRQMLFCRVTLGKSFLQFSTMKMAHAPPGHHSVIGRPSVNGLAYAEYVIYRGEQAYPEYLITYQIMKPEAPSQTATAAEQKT
Description: Inhibition of human TNKS1 (1030 to 1317 residues) by fluorescence based activity assay

A short description of experiment [2]: Inhibition of Wnt/beta-catenin pathway (unknown origin) expressed in HEK293 cells by Wnt-responsive super-topflash luciferase reporter assay. In kind it is cell-based. Particulars: Homo sapiens. In general terms: Reporter assays use an easily measured gene product as a stand-in for the process of interest.
Experiment [3] has as its target T1, Poly [ADP-ribose] polymerase tankyrase-1. The experiment is described as follows: Inhibition of TNKS1 (unknown origin).
For experiment [4], the target named is T2, Poly [ADP-ribose] polymerase tankyrase-1 (Homo sapiens) (UniProt O95271).
T2 sequence (whole entry): T1 sequence (O95271 whole entry)
The experiment is described as follows: Inhibition of TNKS1 (unknown origin) at 0.5 uM by colorimetric method.

The test system of a further experiment is MCF7. The experiment is described as follows: Growth inhibition of human MCF7 cells incubated for 24 hrs by MTT assay. In kind it is functional, cell-based. Particulars: MCF7, 24 h. In general terms: Tetrazolium assays rely on reduction of a dye to a coloured formazan, in cell work by metabolically active cells.
The next experiment relates to SW480. The experiment is described as follows: Antitumor activity against human SW480 cells xenografted in CB17/SCID mouse assessed as inhibition of tumor growth at 150 to 300 mg/kg after 3 weeks. In kind it is functional.

From ChEMBL document CHEMBL4270509, “Targeting Wnt-driven cancers: Discovery of novel tankyrase inhibitors” (Eur J Med Chem, 2017) come the findings set out here.

Usually IC50 stands for the concentration at which inhibition is half-maximal. The term EC50 denotes the concentration that produces a half-maximal response. High values mean a less potent agent, low ones a more potent agent. One may read the inhibition as the change of the read-out against control, counted positive when it falls. Lower therefore signals a response near the control. As usually defined, the TGI is how far tumour growth fell short of that in controls.

With `CC(C)(C)c1ccc(-c2nc3ccccc3c(=O)[nH]2)cc1`, in experiment [1], the midpoint of inhibition, the IC50, lay at 5 nM.

In the case of `O=C(Nc1cccc2cccnc12)c1ccc(C2C(=O)[C@@H]3[C@H](C2=O)[C@@H]2C=C[C@H]3C2)cc1` (some centres undefined), in experiment [2], the EC50 is 180 to 2000 nM.

In turn, `Cn1c(-c2ccc(Cl)cc2Cl)nc(=O)c2cccnc21` returned an IC50 in experiment [3] of 11000 nM.

As to `O=C(NC1CCCC1)c1ccc(Cn2c(=O)c3ccccc3n(Cc3cc(=O)n4ccccc4n3)c2=O)cc1`, the EC50 in experiment [2] is 180 to 2000 nM.

The compound `Cc1cccc2nc(Cn3c(=O)n(CC4CCC(C(=O)NCc5ccccc5)CC4)c(=O)c4ccccc43)cc(=O)n12` (centres undefined) returned an EC50 in experiment [2] of 180 to 2000 nM.

In experiment [4], `Cc1c(Cl)cccc1NC(CC(=O)c1ccccc1)C(=O)OCC(=O)c1ccc([N+](=O)[O-])cc1` (centres undefined) showed an inhibition of 60%. In addition, 5000 nM corresponded to half-maximal inhibition in the experiment on MCF7 (IC50).

As for `COc1ccc(-n2c(SCc3nc(-c4ccc(C)cc4)no3)nnc2-c2ccncc2)cc1`, the TGI with SW480 is listed as 30%.

As for `N#Cc1ccccc1Cn1c(=O)n(CC2CCC(C(=O)NCc3ccccc3)CC2)c(=O)c2ccccc21` (centres undefined), the concentration giving a half-maximal response (EC50) in experiment [2] fell in the range of 180 to 2000 nM.
